According to patent US20240148821A1, “PHARMACEUTICAL USE OF CYCLIC PEPTIDE COMPOUND” (CHUGAI SEIYAKU KABUSHIKI KAISHA, priority 2021, published 2024):
Numbered stars: 1 amine (or outer) side, 2 acyl side, 3 side chain; on linkers, the order of the positions; unused ones are H or OH. Bridge positions count the residues as written; N and C are the ends. Square brackets hold non-standard residues; d marks the D form. Peptide text beside a SMILES is read from it. * marks the point of attachment. hPhe(3,5-F2-4-CF3) = N[C@@H](CCc1cc(F)c(C(F)(F)F)c(F)c1)C(=O)O; hPhe(3-Cl-4-CF3) = N[C@@H](CCc1ccc(C(F)(F)F)c(Cl)c1)C(=O)O; hPhe(3-F,4-CF3) = N[C@@H](CCc1ccc(C(F)(F)F)c(F)c1)C(=O)O; X19 = O=C([C@@H]1C[C@@H](N2CCC(F)(F)CC2)CN1[*:1])[*:2]; NMePhe(4-CF3) = CN[C@@H](Cc1ccc(C(F)(F)F)cc1)C(=O)O; X24 = COc1cncc(C[C@@H](C(=O)[*:2])N(C)[*:1])c1; NMePhe(4-Cl) = CN[C@@H](Cc1ccc(Cl)cc1)C(=O)O; NMePhe(4-Me) = CN[C@@H](Cc1ccc(C)cc1)C(=O)O; hPhe(4-Cl) = N[C@@H](CCc1ccc(Cl)cc1)C(=O)O; NMedβ3hAla = C[C@H](CC(=O)[*:2])N(C)[*:1]; NMeGly(cPent) = CN[C@H](C(=O)O)C1CCCC1; NMeCha = CN[C@@H](CC1CCCCC1)C(=O)O; NMeAhp(2) = CCCCC[C@H](NC)C(=O)O; NMeChg = CN[C@H](C(=O)O)C1CCCCC1; NMeI = CC[C@H](C)[C@H](NC)C(=O)O; NMeD = CN[C@@H](CC(=O)O)C(=O)O; NMeL = CN[C@@H](CC(C)C)C(=O)O; Chg = N[C@H](C(=O)O)C1CCCCC1; NMeV = CN[C@H](C(=O)O)C(C)C; d(β3hA) = C[C@@H](N)CC(=O)O; NMeS = CN[C@@H](CO)C(=O)O; Morpholide = C1CN(*)CCO1; NMeA = CN[C@@H](C)C(=O)O; NMeAib = CNC(C)(C)C(=O)O; Piperidide = C1CCN(*)CC1; Pra = C#CC[C@H](N)C(=O)O; Pyrrolidide = C1CCN(*)C1; Ac5c = NC1(C(=O)O)CCCC1; Aze = O=C(O)[C@@H]1CCN1; Isopentyl = CC(C)CC*; Sar = CNCC(=O)O

What was measured:
[1] = target: protein-protein interaction between Kras and SOS1 (biotin-tagged human Kras loaded with GDP, His-tagged human SOS1) (Homo sapiens (Human), UniProt P01116, G12D); assay: Protein-protein interaction inhibition between Kras and SOS1 (KrasG12D-SOS PPI) using AlphaScreen; assay type: biochemical; settings: AlphaScreen; biotin-tagged human Kras loaded with GDP, His-tagged human SOS1; read-out: KRAS G12D-SOS PPI IC50;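 further: kras produced in E. coli, Ni-coupled donor beads and streptavidin acceptor beads, excitation 680 nm with emission detected at 520–620 nm via singlet oxygen transfer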
[2] = test system: Human pancreatic cancer cell line AsPC-1 (G12D mutation Kras); assay: AsPC-1 cell growth inhibition (AsPC-1 CGI); assay type: cell-based; settings: read-out: AsPC-1 cell growth inhibition, 50% growth inhibitory concentration (IC50 value); 96 hours, CellTiter-Glo, values classified in ranges
Description: Test compounds were serially dilated with dimethyl sulfoxide, and 200 nL was then dispensed to a U-bottom 96-well plate using Labcyte Echo. […] The cell suspension was dispensed to a. plate containing a test compound at 100 μL per well and incubated at 37° C. in a 5% carbon dioxide gas incubator. 96 hours later, 80 μL of CellTiter-Glo (Promega) was added to each well and fluorescence was measured.

For `CC[C@H](C)[C@@H]1NC(=O)[C@H](CC(C)C)N(C)C(=O)C[C@@H](C(=O)N2CCCC2)N(C)C(=O)[C@H]([C@@H](C)CC)N(C)C(=O)C2(CCCC2)NC(=O)[C@@H]2CCCN2C(=O)[C@H](CCc2ccc(C(F)(F)F)c(Cl)c2)NC(=O)CN(C)C(=O)[C@H](Cc2ccc(C(F)(F)F)cc2)N(C)C(=O)[C@@H]2CCN2C(=O)[C@H](C)N(C)C1=O` [Compound 882] ([NMeL]I[NMeA][Aze][NMePhe(4-CF3)][Sar][hPhe(3-Cl-4-CF3)]P[Ac5c][NMeI][NMeD]-Pyrrolidide; lactam N-11), the IC50 [1] was 0.47 nM and the IC50 [2] was ≤ 20 nM.

`CC[C@H](C)[C@@H]1NC(=O)[C@H](CC(C)C)N(C)C(=O)C[C@@H](C)N(C)C(=O)[C@H](CC(C)C)NC(=O)C(C)(C)N(C)C(=O)[C@H](CC(C)C)NC(=O)[C@H](CCc2ccc(C(F)(F)F)c(F)c2)NC(=O)CN(C)C(=O)[C@H](CC2CCCCC2)N(C)C(=O)CN(C)C(=O)CN(C)C1=O` [Compound 883] (cyclo(I[Sar][Sar][NMeCha][Sar][hPhe(3-F,4-CF3)]L[NMeAib]L[NMedβ3hAla][NMeL])) was tested, and the IC50 [1] was 49 nM and the IC50 [2] was > 500 nM.

For `CC[C@H](C)[C@@H]1NC(=O)[C@H](CC(C)C)N(C)C(=O)C[C@@H](C(=O)N2CCCCC2)N(C)C(=O)[C@H](C2CCCCC2)N(C)C(=O)C2(CCCC2)NC(=O)[C@H](Cc2cncc(OC)c2)N(C)C(=O)[C@H](CCc2ccc(C(F)(F)F)c(Cl)c2)NC(=O)CN(C)C(=O)[C@H](CC2CCCCC2)N(C)C(=O)CN(C)C(=O)CN(C)C1=O` [Compound 887] ([NMeL]I[Sar][Sar][NMeCha][Sar][hPhe(3-Cl-4-CF3)][X24][Ac5c][NMeChg][NMeD]-Piperidide; lactam N-11), the IC50 [1] was 6.2 nM and the IC50 [2] was > 500 nM.

`CC[C@H](C)[C@@H]1NC(=O)[C@H](C(C)C)N(C)C(=O)C[C@@H](C)NC(=O)[C@H](CC(C)C)N(C)C(=O)C2(CCCC2)NC(=O)[C@H](CC(C)C)N(C)C(=O)[C@H](CCc2ccc(C(F)(F)F)c(Cl)c2)NC(=O)CN(C)C(=O)[C@H](CC2CCCCC2)N(C)C(=O)CN(C)C(=O)CN(C)C1=O` [Compound 892] (cyclo([Ac5c][NMeL][d(β3hA)][NMeV]I[Sar][Sar][NMeCha][Sar][hPhe(3-Cl-4-CF3)][NMeL])) was tested, and the IC50 [1] was 68 nM and the IC50 [2] was > 500 nM.

For `CCCCC[C@H]1C(=O)N[C@@H]([C@@H](C)CC)C(=O)N(C)[C@@H](C)C(=O)N2CC[C@H]2C(=O)N(C)[C@@H](Cc2ccc(C)cc2)C(=O)N(C)CC(=O)N[C@@H](CCc2ccc(C(F)(F)F)c(Cl)c2)C(=O)N2CCC[C@H]2C(=O)NC2(CCCC2)C(=O)N(C)[C@@H]([C@@H](C)CC)C(=O)N(C)[C@H](C(=O)N(C)C)CC(=O)N1C` [Compound 896] ([NMeAhp(2)]I[NMeA][Aze][NMePhe(4-Me)][Sar][hPhe(3-Cl-4-CF3)]P[Ac5c][NMeI][NMeD]-NMe2; lactam N-11), the IC50 [1] was 1.1 nM and the IC50 [2] was ≤ 20 nM.

In the case of `CC[C@H](C)[C@@H]1NC(=O)[C@H](CC(C)C)N(C)C(=O)C[C@@H](C)N(C)C(=O)[C@H](C2CCCCC2)NC(=O)C(C)(C)N(C)C(=O)[C@H](CC(C)C)NC(=O)[C@H](CCc2ccc(C(F)(F)F)c(F)c2)NC(=O)CN(C)C(=O)[C@H](Cc2ccc(Cl)cc2)N(C)C(=O)CN(C)C(=O)CN(C)C1=O` [Compound 897] (cyclo([Chg][NMedβ3hAla][NMeL]I[Sar][Sar][NMePhe(4-Cl)][Sar][hPhe(3-F,4-CF3)]L[NMeAib])), the IC50 [1] is reported as 150 nM and the IC50 [2] is reported as > 500 nM.

`CC[C@H](C)[C@@H]1NC(=O)[C@H](C)N(C)C(=O)C[C@@H](C(=O)N2CCCCC2)N(C)C(=O)[C@H](C(C)C)N(C)C(=O)C2(CCCC2)NC(=O)[C@@H]2CCCN2C(=O)[C@H](CCc2ccc(Cl)cc2)NC(=O)CN(C)C(=O)[C@H](CC2CCCCC2)N(C)C(=O)[C@@H]2CCN2C(=O)[C@H](C)N(C)C1=O` [Compound 903] ([NMeA]I[NMeA][Aze][NMeCha][Sar][hPhe(4-Cl)]P[Ac5c][NMeV][NMeD]-Piperidide; lactam N-11) was tested, and the IC50 [1] was 24 nM and the IC50 [2] was > 500 nM.

For `CC[C@H](C)[C@@H]1NC(=O)[C@H](CC(C)C)N(C)C(=O)C[C@@H](C)N(C)C(=O)[C@H]([C@@H](C)CC)N(C)C(=O)C2(CCCC2)NC(=O)[C@@H]2CCCN2C(=O)[C@H](CCc2cc(F)c(C(F)(F)F)c(F)c2)NC(=O)CN(C)C(=O)[C@H](Cc2ccc(C(F)(F)F)cc2)N(C)C(=O)[C@@H]2CCN2C(=O)[C@H](C)N(C)C1=O` [Compound 907] (cyclo([Ac5c][NMeI][NMedβ3hAla][NMeL]I[NMeA][Aze][NMePhe(4-CF3)][Sar][hPhe(3,5-F2-4-CF3)]P)), the IC50 [1] was 1.4 nM and the IC50 [2] was ≤ 20 nM.

For `CC[C@H](C)[C@@H]1NC(=O)[C@H](C)N(C)C(=O)C[C@@H](C(=O)N2CCCCC2)N(C)C(=O)[C@H](C(C)C)N(C)C(=O)C2(CCCC2)NC(=O)[C@@H]2C[C@@H](N3CCC(F)(F)CC3)CN2C(=O)[C@H](CCc2ccc(C(F)(F)F)c(Cl)c2)NC(=O)CN(C)C(=O)[C@H](CC2CCCCC2)N(C)C(=O)CN(C)C(=O)CN(C)C1=O` [Compound 914] ([NMeA]I[Sar][Sar][NMeCha][Sar][hPhe(3-Cl-4-CF3)][X19][Ac5c][NMeV][NMeD]-Piperidide; lactam N-11), the IC50 [1] was 1.1 nM and the IC50 [2] was > 500 nM.

`CC[C@H](C)[C@@H]1NC(=O)[C@H](CC(C)C)N(C)C(=O)C[C@@H](C(=O)N2CCOCC2)N(C)C(=O)[C@H](C2CCCC2)N(C)C(=O)C2(CCCC2)NC(=O)[C@@H]2CCCN2C(=O)[C@H](CCc2ccc(C(F)(F)F)c(F)c2)NC(=O)CN(C)C(=O)[C@H](Cc2ccc(C)cc2)N(C)C(=O)[C@@H]2CCN2C(=O)[C@H](C)N(C)C1=O` [Compound 938] ([NMeL]I[NMeA][Aze][NMePhe(4-Me)][Sar][hPhe(3-F,4-CF3)]P[Ac5c][NMeGly(cPent)][NMeD]-Morpholide; lactam N-11) was tested, and the IC50 [1] was 0.69 nM and the IC50 [2] was ≤ 20 nM.

In the case of `CC[C@H](C)[C@@H]1NC(=O)[C@H](CC(C)C)N(C)C(=O)C[C@@H](C(=O)N2CCCCC2)N(C)C(=O)[C@H](C(C)C)N(C)C(=O)C2(CCCC2)NC(=O)[C@H](C)N(C)C(=O)[C@H](CCc2ccc(C(F)(F)F)c(Cl)c2)NC(=O)CN(C)C(=O)[C@H](CC2CCCCC2)N(C)C(=O)CN(C)C(=O)CN(C)C1=O` [Compound 939] ([NMeL]I[Sar][Sar][NMeCha][Sar][hPhe(3-Cl-4-CF3)][NMeA][Ac5c][NMeV][NMeD]-Piperidide; lactam N-11), the IC50 [1] is reported as 8 nM and the IC50 [2] is reported as > 500 nM.

With `CC[C@H](C)[C@@H]1NC(=O)[C@H](CC(C)C)N(C)C(=O)C[C@@H](C(=O)N2CCCCC2)N(C)C(=O)[C@H](C2CCCCC2)N(C)C(=O)C2(CCCC2)NC(=O)[C@H](COCCC(C)C)N(C)C(=O)[C@H](CCc2ccc(C(F)(F)F)c(Cl)c2)NC(=O)CN(C)C(=O)[C@H](CC2CCCCC2)N(C)C(=O)CN(C)C(=O)CN(C)C1=O` [Compound 940] ([NMeL]I[Sar][Sar][NMeCha][Sar][hPhe(3-Cl-4-CF3)][NMeS](Isopentyl)[Ac5c][NMeChg][NMeD]-Piperidide; lactam N-11) the IC50 [1] was 150 nM and the IC50 [2] was > 500 nM.

For `C#CC[C@@H]1NC(=O)[C@H](CC(C)C)N(C)C(=O)C[C@@H](C(=O)N2CCCCC2)N(C)C(=O)[C@H](C(C)C)N(C)C(=O)C2(CCCC2)NC(=O)[C@@H]2CCCN2C(=O)[C@H](CCc2ccc(C(F)(F)F)c(Cl)c2)NC(=O)CN(C)C(=O)[C@H](CC2CCCCC2)N(C)C(=O)[C@@H]2CCN2C(=O)[C@H](C)N(C)C1=O` [Compound 946] ([NMeL][Pra][NMeA][Aze][NMeCha][Sar][hPhe(3-Cl-4-CF3)]P[Ac5c][NMeV][NMeD]-Piperidide; lactam N-11), the IC50 [1] was 7.5 nM and the IC50 [2] was > 500 nM.
